In US6500849B1, “1-alkyl-, 1-alkenyl-, and 1-alkynylaryl-2-amino 1,3-propanediols and related compounds” (Aventis Pharmaceuticals Inc., priority 1990, dated 2002):

Experiments:
[1] = test system: female Swiss Webster mice; test: Arachidonic acid-induced ear edema assay; format: in vivo; details: 1 mg/ear topical, arachidonic acid 4 mg/ear
Protocol: In the arachidonic acid-induced ear edema assay, the test compound was dissolved in 30/70 propylene glycol/ethanol and was applied to both ears of groups of 6 female Swiss Webster mice, which were housed together in a cage under standard conditions for 1 week prior to use with food and water ad lib, at a volume of 20 μl so that a total of 1.0 mg of test compound was delivered to each ear over the inner and outer surfaces. The same volume (20 μl) of vehicle was applied to each ear of a control group of mice. After 30 minutes, arachidonic acid was applied to the right ear of each mouse of each group in the amount of 4 mg/ear. Vehicle was applied to the left ear of each mouse of each group at a volume of 20 μl/ear. After an additional hour, the mice were sacrificed and a 4 mm plug was taken from each ear and weighed. The difference between the right and left ear plugs was determined for each animal. The antiinflammatory activity of the test compound is expressed as the mean percent change in the ear plug weight of the treated animals relative to the mean percent change in weights of control animals' ear. Antiinflammatory activity of representative compounds of the present invention as determined in this assay are presented below in Table 3.

Protein kinase C = Protein kinase C assay (32P incorporation into Type III histone); format: biochemical, rat; details: rat brain protein kinase C; phosphatidylserine/diacylglycerol stimulated; read-out: Protein Kinase Inhibitory Activity IC50
Protocol: (see U. Kikkawa, et al., Biochemical and Biophysical Research Communications, 135, 636 (1986) and R. M. Bell, et al. “Methods in Enzymology, Hormone Action,” Part J, P.M. Conn, Ed., Academic Press, Inc., New York, N.Y. 1986, page 353). Protein kinase C enzyme extract was prepared from the brain of male Wistar rats weighing 180 to 200 g and purified by the method of U. Kikkawa, et al., ibid. 636. The purified extract was stored at −80° C., and aliquots were used in the protein kinase C assay performed by a modification of the method of R. M. Bell, et al., ibid. al 354. To perform the assay, duplicate aliquots of duplicate samples are employed. Basal or unstimulated protein kinase C, phosphatidylserine/diacylglycerol stimulated protein kinase C, and test samples are run in each assay. […] The assay tubes were allowed to warm to 25° C. and an 8 μl mixture of adenosine 5′-triphosphate (100 μM) and ^32P-adenosine triphosphate (1 to 2×10^5 counts per minute) was added to each tube for a final volume of 80 μl per tube. After 2 min, the reaction (the incorporation of phosphorous into Type III histone) was terminated by spotting the assay mixture on phosphocellulose paper. The spots are cut out of the paper and the radioactivity (counts per min) of each spot was determined in a scintillation counter.

Klebsiella spp. = test: Aerobic antibacterial assay (agar dilution, Mueller-Hinton agar); details: Klebsiella spp. 1522E; aerobic; 24 hours at 37° C.
Propionibact. acnes = test: Anerobic antibacterial assay (agar dilution, Wilkins-Chalgren agar); format: cell-based; details: anaerobic, 48 hours at 37° C.
Fusobact. varium = test: as above; format: cell-based; details: anaerobic, 48 hours at 37° C.
Strept. pyogenes = test: Aerobic antibacterial assay (agar dilution, Mueller-Hinton agar); details: Strept. pyogenes 77 A; aerobic; 24 hours at 37° C.
[2] = test system: female Swiss Webster mice; test: TPA-induced ear edema assay; format: in vivo; details: 10 μg/ear topical, after about 5 hours
Protocol: In the TPA-induced ear edema assay, TPA (12-O-tetradecanoylphorbol-13-acetate) was dissolved in 30/70 propylene glycol/ethanol and was applied to the right ear of groups of 6 female Swiss Webster mice, which were housed together in a cage under standard conditions for 1 week prior to use with food and water ad lib, at a volume of 20 μl so that a total of 10 μg of TPA is delivered to the inner and outer surfaces of the ear. The test compound was dissolved in the vehicle and was applied to the right ear (the inner and outer surface) at a volume of 20 μl so that a total of 10 μg of the compound was delivered to the ear. After about 5 hours, the animals were sacrificed, a 4 mm diameter plug was taken from each ear and weighed. The difference between the right and left ear plug weights for each animal was determined. The antiinflammatory activity of the test compound is expressed as the mean percent change in the ear plug weight of the treated animals compared to the mean percent change in the plug weight of the control animals.

E. cloacae = test: Aerobic antibacterial assay (agar dilution, Mueller-Hinton agar); details: E. cloacae 1321E; aerobic; 24 hours at 37° C.
Bact. thetaiotaom. = test: Anerobic antibacterial assay (agar dilution, Wilkins-Chalgren agar); format: cell-based; details: anaerobic, 48 hours at 37° C.
Bact. vulgatus = test: as above; format: cell-based; details: Bact. vulgatus 1446; anaerobic; 48 hours at 37° C.
Bact. ovatus = test: as above; format: cell-based; details: Bact. ovatus 103; anaerobic; 48 hours at 37° C.
Clost. tetani = test: as above; format: cell-based; details: Clost. tetani 19406; anaerobic; 48 hours at 37° C.
Bact. fragilis = test: as above; format: cell-based; details: anaerobic, 48 hours at 37° C.
Clost. perfringens = test: microbe, parasite or virus in culture; format: cell-based; details: Clost. perfringens 194; anaerobic; 48 hours at 37° C.
Bact. distasonis = test: Anerobic antibacterial assay (agar dilution, Wilkins-Chalgren agar); format: cell-based; details: Bact. distasonis 1366; anaerobic; 48 hours at 37° C.
Spaeroph. freundii = test: as above; format: cell-based; details: Spaeroph. freundii 1369; anaerobic; 48 hours at 37° C.
Peptostr. anaerobius = test: as above; format: cell-based; details: Peptostr. anaerobius 932; anaerobic; 48 hours at 37° C.
Aspergillus Niger = test: Antifungal assay (microtitration technique); format: cell-based; details: Aspergillus Niger strain 500/284; 5 days at 30° C.
Protocol: (§1) The microtiter plate is prepared as follows: The wells are each filled (2 rows/strain) with 50 μl neopeptone-dextrose broth (12-channel pipette). In addition, one row/strain is coated with 50 μl yeast-nitrogen base/well for yeasts and moulds. […] All wells are then inoculated with 150 μl standardized organism suspension (yeasts: 1×10^3 organisms/ml suspension; cutaneous fungi and moulds: 1.6×10^5 organisms/ml suspension); the total volume is 200 μl per well. There is also a growth control (inoculated, not medicated), a solvent control (inoculated, not medicated, containing solvent as in medicated rows) and a negative control (not inoculated, not medicated). Incubation for 5 days at 30° C. is followed by photometric evaluation. The obtained measurements are checked visually (macroscopically and microscopically) and corrected where necessary. Criteria for Evaluation of the Antimycotic Effect a. Photometric measurements (matrix method) b. Growth, macroscopic evaluation c. Growth, microscopic evaluation (inversion light microscope, magn. 64×).

Microsporum Canis = test: Antifungal assay (microtitration technique); format: cell-based; details: Microsporum Canis strain 150/353; 5 days at 30° C.
Protocol: as §1

[3] = test system: Trichophyton Mentagrophytes; test: Antifungal assay (microtitration technique); format: cell-based; details: Trichophyton Mentagrophytes strain 100/25; 5 days at 30° C.
Protocol: as §1

Trichophyton Vaginalis = test: Antifungal assay (microtitration technique); format: cell-based; details: Trichophyton Vaginalis strain 111/216; 5 days at 30° C.
Protocol: as §1

Candida Albicans = test: Antifungal assay (microtitration technique); format: cell-based; details: Candida Albicans strain 200/175; 5 days at 30° C.
Protocol: as §1

Trichophyton Rubrum = test: Antifungal assay (microtitration technique); format: cell-based; details: Trichophyton Rubrum strain 101/85; 5 days at 30° C.
Protocol: as §1

In the case of `CCCCCCCCCCc1cccc(C(O)C(N)CO)n1` (stereo not drawn) [erythro-2-amino-1-(6-decyl-2-pyridinyl)-1,3-dihydroxypropane], the “Antiinflammatory Activity Percent Decrease in Ear Plug Weight at 1 mg/ear” value [1] is reported as 32%, the IC50 (Protein kinase C) is reported as 48 µM and the “Antibacterial activity (MIC, mg/l)” value (Klebsiella spp.) is reported as 12.50 mg/L. The “Antibacterial activity (MIC, mg/l)” value (Propionibact. acnes; Propionibact. acnes 6922) was 12.50 mg/L, the “Antibacterial activity (MIC, mg/l)” value (Fusobact. varium; Fusobact. varium 3085) was 12.50 mg/L and the “Antibacterial activity (MIC, mg/l)” value (Strept. pyogenes) was 6.25 mg/L. For the same compound, the “Antiinflammatory Activity Percent Decrease in Ear Plug Weight at 10 μg/ear” value [2] was 66% and the “Antibacterial activity (MIC, mg/l)” value (E. cloacae) was 12.50 mg/L.

With `CCCCCCCCCCC#Cc1cccc([C@@H](O)[C@H](CO)NC(C)=O)n1` [erythro-N-{1-[6-(1-Dodecynyl)-2-pyridinyl]-1,3-dihydroxy-2-propanyl}acetamide] the “Antibacterial activity (MIC, mg/l)” value (Bact. thetaiotaom.; Bact. thetaiotaom. 123) was 3.13 mg/L, the “Antibacterial activity (MIC, mg/l)” value (Bact. thetaiotaom.; Bact. thetaiotaom. 1428) was 6.25 mg/L and the “Antibacterial activity (MIC, mg/l)” value (Bact. thetaiotaom.; Bact. thetaiotaom. 1445) was 6.25 mg/L. For the same compound, the “Antibacterial activity (MIC, mg/l)” value (Bact. vulgatus) was 3.13 mg/L, the “Antibacterial activity (MIC, mg/l)” value (Bact. ovatus) was 3.13 mg/L and the “Antibacterial activity (MIC, mg/l)” value (Clost. tetani) was 12.50 mg/L. For the same compound, the “Antibacterial activity (MIC, mg/l)” value (Bact. fragilis; Bact. fragilis 312) was 3.13 mg/L, the “Antibacterial activity (MIC, mg/l)” value (Bact. fragilis; Bact. fragilis 960) was 3.13 mg/L and the “Antibacterial activity (MIC, mg/l)” value (Bact. fragilis; Bact. fragilis 1313) was 6.25 mg/L. For the same compound, the “Antibacterial activity (MIC, mg/l)” value (Bact. fragilis; Bact. fragilis 17390) was 6.25 mg/L, the “Antibacterial activity (MIC, mg/l)” value (Bact. fragilis; Bact. fragilis 18125) was 3.13 mg/L and the “Antibacterial activity (MIC, mg/l)” value (Bact. fragilis; Bact. fragilis 19016) was 6.25 mg/L. For the same compound, the “Antibacterial activity (MIC, mg/l)” value (Propionibact. acnes; Propionibact. acnes 6919) was 6.25 mg/L, the “Antibacterial activity (MIC, mg/l)” value (Propionibact. acnes; Propionibact. acnes 6922) was 6.25 mg/L and the “Antibacterial activity (MIC, mg/l)” value (Clost. perfringens) was 12.00 mg/L. For the same compound, the “Antibacterial activity (MIC, mg/l)” value (Bact. distasonis) was 6.25 mg/L, the “Antibacterial activity (MIC, mg/l)” value (Spaeroph. freundii) was 3.13 mg/L and the “Antibacterial activity (MIC, mg/l)” value (Peptostr. anaerobius) was 6.25 mg/L. The “Antibacterial activity (MIC, mg/l)” value (Fusobact. varium; Fusobact. varium 3085) was 6.25 mg/L, the “Antibacterial activity (MIC, mg/l)” value (Fusobact. varium; Fusobact. varium 5262) was 6.25 mg/L and the “Antifungal Activity MIC” value (Aspergillus Niger) was 125.000 µg/mL. The “Antifungal Activity MIC” value (Microsporum Canis) was 0.970 µg/mL, the “Antifungal Activity MIC” value [3] was 7.810 µg/mL and the “Antifungal Activity MIC” value (Trichophyton Vaginalis) was 15.625 µg/mL. For the same compound, the “Antifungal Activity MIC” value (Candida Albicans) was 125.000 µg/mL, the “Antifungal Activity MIC” value (Trichophyton Rubrum) was 31.250 µg/mL and the “Antiinflammatory Activity Percent Decrease in Ear Plug Weight at 10 μg/ear” value [2] was 59%.
